Tests used:
Allergenicity study = format: in vivo, rabbits; details: subcutaneous 0.01% solution for 5 days
Description: The study was performed in 12 rabbits, who received subcutaneous injections of 0.01% H-Ile-Glu-Trp-OH solution for 5 days. The control animals were injected with horse serum.

[1] = Toxicity study: single 0.15 g/kg or 10 μg/kg for 5 days, cellular systems on day 14; format: in vivo, male mice
Description: To determine the peptide toxicity, male mice received single injections of the peptide in the dose of 0.15 g per kg body weight, which was 15,000 times as large as the therapeutic dose with favourable effect in post-irradiation regeneration of hemopoietic progenitors. The second group of mice received daily peptide injections in the dose of 10 μg/kg (the therapeutical dose) for 5 days. […] On the 14-th day after the peptide injection 10 mice from each group were killed to determine the condition of their cellular systems. Nucleated cells were counted in spleen and thymus (per mg of organ weight), bone marrow, blood (per ml). Erythrocyte count and hemoglobin level were determined.

[2] = Acute toxicity in guinea pigs; format: in vivo; details: 20 guinea pigs
Description: To establish the safety of use of the peptides, toxicity tests were performed. Toxicity tests where performed in accordance Pharmacological Committee Russian Federation (RF) "guidelines for the pre-clinical study of general toxic activity of new pharmacological compounds". M., 1985.
Acute toxicity was studied in 20 guinea pigs and 6 dogs. […] The drug has a wide therapeutic range.

[3] = system: lymphocyte subpopulations in peripheral blood; assay: Clinical study: hemogram and immune phenotyping in patients with chronic lymphoid leukosis; format: in vivo
Description: The study was continued in groups of patients with immune cytopenias, multiple myeloma, chronic lymphoid leukosis, lymphocytic lymphomas, lymphosarcomas (55 patients). Special attention was paid to the group of patients with P-cellular lymphoid leukosis. The peculiarity of the leukemic B-lymphocyte clone and its relatively vast representation in the peripheral blood of patients with a pronounced secondary immune deficiency makes B-cellular chronic Lymphoid leukosis a unique model for clinical studies of the effect of an immunomodulator.
Immune phenotyping is the most reliable method to determine the changes of ratios of immunocompetent cells in the peripheral blood and lymphocyte-containing organs. The method allows detection of subpopulations by the presence of cellular differentiating antigen structures on lymphocyte surface. For more trustworthy results, some patients were examined using a flow-type cytoflourimeter and monoclonal antibodies. Taking into account the contingent of the patients, the main surface structures to be examined were the following: CD45++CD14-, CD45+CD14-, CD45+CD14+, CD3+CD19-, CD3-CD19+, CD4+CD8-, CD4-CD8+, CD3+HLA- DR+, CD3+CD16,56+, CD34+, CDS+.
The dynamics of CD4+CD8- and CD4-CD8+ (T-helpers and T-suppressers) and the dynamics of other necessary CD-markers were determined in the course of treatment with H-Ile-Glu-Trp-OH. A special attention was paid to CD45++CD14- and CD45+CD14 as they characterize the proportion between normal and leukemic lymphocytes in chronic lymphoid leukosis and illustrate the influence of the immunoactive peptide on the proportion. These peculiarities connected with the characteristics of the disease allow investigation of the molecular mechanism of its genesis. In the case of an immune cytopenia most important are the quantitative ratios of CD45++CD14- and CD45+CD14- to CD4-CD8+, their reliable values can be obtained with the help of a cytofluorimeter.
One ml daily, intranasally, once or twice in divided doses, for 5 days. The course was repeated after a 3-week interval. To those patients who received a cytostatic mono- or polychemotherapy, H-Ile-Glu-Trp-OH was administered from the first day of the break in the cytostatic treatment.

[4] = 10 mcg/kg × 5 injections, day 14
[5] = Patient 0., * % of cells in mixed population of CD45++CD14- and CD45+CD14-
[6] = Patient S., * % of cells in the CD45+CD14- subpopulation

H-Ile-Glu-Trp-OH
reaction on the injection sites (Allergenicity study): No macroscopic reaction
Survival for 30 days ([1]; 10 μg/kg daily for 5 days): Not an animal died
Karyocyte Count, Spleen ([1]; 0.15 g/kg, day 14): 2280 ± 30 10^3 /mg
Karyocyte Count, Thymus ([1]; 0.15 g/kg, day 14): 3030 ± 250 10^3 /mg
erythrocyte ([1]; 0.15 g/kg, day 14): 8100 ± 600 10^3
hemoglobin ([1]; 0.15 g/kg, day 14): 10.8 ± 0.7 g/dL
karyocyte count bone marrow ([1]; 0.15 g/kg, day 14): 2.39 ± 0.25 × 10^7 /femur
karyocytes % ([1]; 0.15 g/kg, day 14): 62.0 ± 3.4%
karyocytes (blood) ([1]; 0.15 g/kg, day 14): 5.4 ± 0.7 10^3
karyocytes absolute ([1]; 0.15 g/kg, day 14): 3348
weight ([1]; 0.15 g/kg, day 14): 21-22.0
Karyocyte Count, Spleen [1, 4]: 1760 ± 100 10^3 /mg
Karyocyte Count, Thymus [1, 4]: 2780 ± 340 10^3 /mg
erythrocyte [1, 4]: 8400 ± 200 10^3
hemoglobin [1, 4]: 11.5 ± 0.2 g/dL
karyocyte count bone marrow [1, 4]: 1.94 ± 0.2 × 10^7 /femur
karyocytes % [1, 4]: 58.6 ± 3.6%
karyocytes (blood) [1, 4]: 10.1 ± 0.8 10^3
weight [1, 4]: 21-22.5
LD50 ([1]; not found): > 15,000 as large as the therapeutical one
growth of average weight by the end of the study ([1]; same as in control): 2 g
Survival for 30 days ([1]; single injection 0.15 g per kg): Not an animal died
acute toxicity [2]: No toxic effects were observed
% of Cells after H-Ile-Glu-Trp-OH Treatment, CD45++CD14- lymphocytes ([3]; Patient 0.): 28%
% of Cells after H-Ile-Glu-Trp-OH Treatment, CD45+CD14+ monocytes ([3]; Patient 0.): 3.6%
% of Cells after H-Ile-Glu-Trp-OH Treatment, CD45+CD14- granulocytes ([3]; Patient 0.): 63.8%
Absolute Count after treatment, CD45++CD14- lymphocytes ([3]; Patient 0.): 5.8 bln/l
number of cells with CD45++CD14- markers after treatment ([3]; Patient 0.): grew three times
Lymphocytes absolute after treatment course ([3]; Patient 0. (before: 11.2)): 15.4 blnd
leukocytes after treatment course ([3]; Patient 0. (before: 17.3)): 20.8 blnd
Lymphocytes after treatment course ([3]; Patient 0. (before: 65)): 74%
% of Cells after H-Ile-Glu-Trp-OH Treatment, CD4+CD8- T-helpers [3, 5]: 8.2%
% of Cells after H-Ile-Glu-Trp-OH Treatment, CD4-CD8+ T-suppressers [3, 5]: 8.1%
CD4+/CD8+ ratio after H-Ile-Glu-Trp-OH Treatment ([3]; Patient 0., * mixed population of CD45++CD14- and CD45+CD14-): 1.0
% of Cells after H-Ile-Glu-Trp-OH Treatment, CD45++CD14- lymphocytes ([3]; Patient B.): 9.5%
% of Cells after H-Ile-Glu-Trp-OH Treatment, CD45+CD14+ monocytes ([3]; Patient B.): 2.1%
% of Cells after H-Ile-Glu-Trp-OH Treatment, CD45+CD14- granulocytes ([3]; Patient B.): 86.4%
Absolute Count after treatment, CD45++CD14- lymphocytes ([3]; Patient B.): 2.52 bln/l
Lymphocytes absolute after treatment ([3]; Patient B. (before: 18.7)): 21.8 bln/1
leukocytes after treatment ([3]; Patient B. (before: 23,0)): 26.6 bin/1
Lymphocytes after treatment ([3]; Patient B. (before: 85)): 82%
% of Cells after H-Ile-Glu-Trp-OH Treatment, CD3+CD19- T-lymphocytes ([3]; Patient B., marked *): 10.6%
% of Cells after H-Ile-Glu-Trp-OH Treatment, CD3+HLA-DR+ activated T-lymphoc. ([3]; Patient B., marked *): 1.31%
% of Cells after H-Ile-Glu-Trp-OH Treatment, CD3-CD19+ B-lymphocytes ([3]; Patient B., marked *): 85.3%
% of Cells after H-Ile-Glu-Trp-OH Treatment, CD4+CD8- T-helpers ([3]; Patient B., marked *): 6.4%
% of Cells after H-Ile-Glu-Trp-OH Treatment, CD4-CD8+ T-suppressers ([3]; Patient B., marked *): 3.8%
CD4+/CD8+ ratio after H-Ile-Glu-Trp-OH Treatment ([3]; Patient B., marked *): 1.7
% of Cells after H-Ile-Glu-Trp-OH Treatment, CD3+CD19- T-lymphocytes ([3]; Patient M.): 35.6%
% of Cells after H-Ile-Glu-Trp-OH Treatment, CD3-CD19+ B-lymphocytes ([3]; Patient M.): 61.2%
% of Cells after H-Ile-Glu-Trp-OH Treatment, CD4+CD8- T-helpers ([3]; Patient M.): 11.6%
% of Cells after H-Ile-Glu-Trp-OH Treatment, CD4-CD8+ T-suppressers ([3]; Patient M.): 30.6%
% of Cells after H-Ile-Glu-Trp-OH Treatment, CD45++CD14- lymphocytes ([3]; Patient M.): 43.2%
% of Cells after H-Ile-Glu-Trp-OH Treatment, CD45+CD14+ monocytes ([3]; Patient M.): 4.5%
% of Cells after H-Ile-Glu-Trp-OH Treatment, CD45+CD14- granulocytes ([3]; Patient M.): 47.7%
Absolute Count after treatment, CD45++CD14- lymphocytes ([3]; Patient M.): 3.715 bln/l
CD4+/CD8+ ratio after H-Ile-Glu-Trp-OH Treatment ([3]; Patient M.): 0.4
Lymphocytes absolute after treatment course ([3]; Patient M. (before: 3.24)): 3.62 bln/1
leukocytes after treatment course ([3]; Patient M. (before: 7.9)): 8.6 blnA
Lymphocytes after treatment course ([3]; Patient M. (before: 41)): 42%
% of Cells after H-Ile-Glu-Trp-OH Treatment, CD3+CD19- T-lymphocytes ([3]; Patient S.): 52.0%
% of Cells after H-Ile-Glu-Trp-OH Treatment, CD3+HLA-DR+ activated T-lymphoc. ([3]; Patient S.): 16.0%
% of Cells after H-Ile-Glu-Trp-OH Treatment, CD3-CD19+ B-lymphocytes ([3]; Patient S.): 40.0%
% of Cells after H-Ile-Glu-Trp-OH Treatment, CD4+CD8- T-helpers ([3]; Patient S.): 27.1%
% of Cells after H-Ile-Glu-Trp-OH Treatment, CD4-CD8+ T-suppressers ([3]; Patient S.): 36.5%
% of Cells after H-Ile-Glu-Trp-OH Treatment, CD45++CD14- lymphocytes ([3]; Patient S.): 13.5%
% of Cells after H-Ile-Glu-Trp-OH Treatment, CD45+CD14+ monocytes ([3]; Patient S.): 0.8%
% of Cells after H-Ile-Glu-Trp-OH Treatment, CD45+CD14- granulocytes ([3]; Patient S.): 78.0%
Absolute Count after treatment, CD45++CD14- lymphocytes ([3]; Patient S.): 9.112 bln/l
CD4+/CD8+ ratio after H-Ile-Glu-Trp-OH Treatment ([3]; Patient S.): 0.7
Lymphocytes absolute after treatment course ([3]; Patient S. (before: 48.04)): 58.06 bln/1
leukocytes after treatment course ([3]; Patient S. (before: 57.2)): 67.5 bin/1
Lymphocytes after treatment course ([3]; Patient S. (before: 84)): 86%
count of lymphocytes belonging to the population of conventionally normal lymphocytes ([3]; Patient S., after the treatment): doubled
% of Cells after H-Ile-Glu-Trp-OH Treatment, CD3+CD19- T-lymphocytes [3, 6]: 2.6%
% of Cells after H-Ile-Glu-Trp-OH Treatment, CD3+HLA-DR+ activated T-lymphoc. [3, 6]: 0.5%
% of Cells after H-Ile-Glu-Trp-OH Treatment, CD3-CD19+ B-lymphocytes [3, 6]: 96.9%
% of Cells after H-Ile-Glu-Trp-OH Treatment, CD4+CD8- T-helpers [3, 6]: 1.6%
% of Cells after H-Ile-Glu-Trp-OH Treatment, CD4-CD8+ T-suppressers [3, 6]: 1.9%
CD4+/CD8+ ratio after H-Ile-Glu-Trp-OH Treatment ([3]; Patient S., * in the CD45+CD14- subpopulation): 0.5
